From US8871751B2, “Compositions and methods relating to nuclear hormone and steroid hormone receptors including inhibitors of estrogen receptor alpha-mediated gene expression and inhibition of breast cancer” (The Board of Trustees of the University of Illinois, priority 2008, dated 2014)
Values joined by “and” are separate entries in the source; they are usually repeats but may differ in a detail not shown here. Equal values may be shown once. Read-outs that look alike come from different tables or passages of the source. Each block holds one molecule with its values, some of them ahead of it.

Columns and labels:
[1] = biological target: T1, human ERα binding to flcERE (Homo sapiens, UniProt P03372); assay: FAMA: inhibition of ERα binding to flcERE; settings: for IC50: FAMA; for inhibition of binding of ERα to the flcERE: 5 μM TPBM
T1 construct: Full-length FLAG-tagged human ERα was expressed and purified as described previously (27); FLAG; made in house
T1 sequence (P03372 1-595): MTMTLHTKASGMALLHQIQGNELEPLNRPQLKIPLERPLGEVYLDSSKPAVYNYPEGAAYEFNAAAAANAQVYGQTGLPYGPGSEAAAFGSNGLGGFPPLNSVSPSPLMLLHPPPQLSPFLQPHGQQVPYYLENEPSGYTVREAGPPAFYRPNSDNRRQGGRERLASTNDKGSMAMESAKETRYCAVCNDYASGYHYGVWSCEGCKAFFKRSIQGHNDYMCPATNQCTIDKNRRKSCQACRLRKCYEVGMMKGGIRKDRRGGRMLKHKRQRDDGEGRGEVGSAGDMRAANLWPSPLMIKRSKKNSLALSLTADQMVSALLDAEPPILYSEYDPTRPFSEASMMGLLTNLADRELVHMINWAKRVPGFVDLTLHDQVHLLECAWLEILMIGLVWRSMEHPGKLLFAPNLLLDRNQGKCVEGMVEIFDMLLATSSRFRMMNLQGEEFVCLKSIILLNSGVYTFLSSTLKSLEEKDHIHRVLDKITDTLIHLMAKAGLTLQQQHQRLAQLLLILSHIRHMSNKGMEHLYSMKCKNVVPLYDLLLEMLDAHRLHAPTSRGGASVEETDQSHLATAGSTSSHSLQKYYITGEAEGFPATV
Description: Prior to screening, the 10 mM library stocks were diluted to produce replica libraries in 384-well plates containing each small molecule at 0.25 mM (in DMSO). In our initial studies we were concerned that forming the flcERE-ERα complex first and then adding the candidate small molecule inhibitors would miss small molecules that bind at the interface. We therefore screened using the “sequential” method in which the candidate small molecules were first incubated with ERα and followed by addition of the flcERE. The assay for binding of ERα to the flcERE is a modification of our earlier assay (27). Assays were carried out at room temperature in black wall 384-well microplates (Greiner/Bio-One) in a total volume of 10 μl in buffer containing 20 mM Tris pH 7.5, 10% glycerol, 0.2 mM EDTA, 2 mM DTT, 100 mM KCl, 0.5 ng/μl poly dl:dC, […] bovine serum albumin and 100 nM 17β-estradiol (E2). For high throughput screening, a master mix without ERα and probe was prepared at 4° C. The master mix was divided into 2 parts. ERα was added to one part to 5 nM in the final assays. 7 μl of the ERα-containing mix was then dispensed into each well of a 384-well plate on ice. 100 nl of the compounds being tested was then added using a pin-transporter (V & P Scientific, Inc, CA) to a final concentration of 2.5 μM. The samples were mixed using the pin-transporter and sedimented by centrifugation for 2 min. at 4° C. and incubated on ice for 10 min. The flcERE probe was added to the other aliquot of the mix to 1 nM. 3 μl of the mix containing the flcERE probe was added to each well containing ERα and the test compound. The samples were mixed using the pin-transporter, the plates were briefly centrifuged and incubated at room temperature for 10 min. and fluorescence anisotropy (FA) was measured using a BMG PheraStar (BMG Labtech) microplate reader (module: 485 520) with excitation at 485λ and emission at 520λ. To identify small molecules that were highly fluorescent, or quench fluorescence, fluorescence intensity was also measured.
Dose response curves for selected compounds were carried out as described for the HTS screen except that each well contained the indicated concentration of test compound. PR assays were carried out in the same buffer used for ERα assays and contained 1 nM flcPRE and 11 nM PR-B and 100 nM progesterone. The buffer used for AR was similar but also contained 5 μM ZnCl, 5 mM NaF, 0.6 μM CHAPS and 100 nM dihydrotestosterone. AR assays contained 1 nM flcARE and 50 nM full-length wild-type AR.

[2] = biological target: T2, ERα (Homo sapiens, UniProt P03372); assay: (ERE)3-luciferase reporter gene assay in T47D-KBluc cells; type: cell-based; design: Using a stably transfected breast cancer cell line that expresses endogenous ERα; endogenous in cells; host or cells: T47D-KBluc
T2 sequence (P03372 1-595): T1 sequence (P03372 1-595)
Description: The T47D-KBluc cells stably express an (ERE)3-luciferase reporter gene (38). […] Four days before E2 induction, the cells were switched to the above medium, with 10% 2× charcoal-dextran-treated calf serum instead of FBS. 200,000 cells/well were transferred to each well of a 24-well plate. After 24 h the indicated concentrations of the test compounds were added in DMSO and E2 was added to 20 pM. After 24 h cells were washed once in PBS, and 150 μl 1× Passive Lysis Buffer (Promega, Madison Wis.) was used to lyse the cells. Luciferase activity was determined using firefly luciferase reagents from Promega (Madison, Wis.).
Reporter Gene Assays. […] AR was assayed in stably transfected HeLa cells and GR was assayed in stably transfected T47D cells maintained as described above. Four days before each experiment the cells were switched to medium containing CD-treated serum as described above. The HeLaAR cells were plated at 100,000 cells/well and the T47D/A1-2 and T47D-KBluc cells were plated at 200,000 cells/well in 1 ml of their respective media in 24-well plates. After 24 hours the indicated concentrations of E2, dihydrotestosterone (DHT) or dexamethasone (Dex) and DMSO vehicle, with or without TPSF, were added to each well. After 24 hours, the cells were washed once in phosphate buffered saline and lysed using 100 μl of 1× Passive Lysis Buffer (Promega, Madison Wis.). Luciferase activity was determined using BrightGlo firefly luciferase reagent from Promega (Madison, Wis.).

[3] = binding to HRE, 5 concentrations 0.5-10 μM, sequential method, read-out: IC50 ERα
[4] = T47D-KBluc cells, 20 pM E2, 24 h, read-out: IC50 for inhibition of E2 dependent ERα transactivation, (ERE)3-luciferase

Compound: CN1CCC(C#N)c2ccccc21 (centres unmarked) [Compound 1529]
IC50 [1, 3]: 4 µM
IC50 [2, 4]: 22 µM

Compound: CCCSc1nc2c([nH]1)c(=O)n(C)c(=S)n2C [Compound 95869, 1,3-Dimethyl-8-propylsulfanyl-2-thioxo-1,2,3,7-tetrahydro-purin-6-one]
ER at 10 μM [2]: 20

Compound: Cn1c(=O)c2[nH]c(SC3CCCCC3)nc2n(C)c1=S [Compound 95899, 8-Cyclohexylsulfanyl-1,3-dimethyl-2-thioxo-1,2,3,7-tetrahydro-purin-6-one]
ER at 10 μM [2]: 36

Compound: Cn1c(=O)c2nc(CSCc3ccccc3)[nH]c2n(C)c1=O [Compound 95910, 8-Benzylsulfanylmethyl-1,3-dimethyl-3,7-dihydro-purine-2,6-dione]
inhibition of binding of ERα to the flcERE ([1]; absence of zinc): 76±7%
inhibition of binding of ERα to the flcERE ([1]; presence of 50 μM zinc): 68±6%
IC50 [1, 3]: 3 µM
IC50 ([1]; read-out: IC50 for inhibition of ERα binding to the flcERE): ~3 µM and 3.5 µM

Compound: Cn1c(=O)c2[nH]c(C3CC4CCC3C4)nc2n(C)c1=O (centres unmarked) [Compound 101807, 8-Bicyclo[2.2.1]hept-2-yl-1,3-dimethyl-3,7-dihydro-purine-2,6-dione]
ER at 10 μM [2]: 0

Results, then the molecule that gave them:

IC50 [1, 3]: 2.5 µM
IC50 [2, 4]: 0.8 µM
Compound: CN(C)CCCn1c2c3ccccc3ccc2c2oc(=O)c3ccccc3c21 [Compound 638432]

concentrations necessary to inhibit AR and GR relative to average IC50 for the two ER-regulated genes (higher) [2]: 20-70 fold
potency as ERα inhibitor relative to TPBM (more potent) [2]: > 15 fold
IC50 ([2]; PI-9 in MCF-7 and (ERE)3-Luc in T47D, read-out: average IC50 for inhibition of the two ER-regulated genes): 0.45 µM
Compound: Cn1c(=S)c2[nH]c(SCCCC(=O)c3ccc(F)cc3)nc2n(C)c1=O [TPSF, Butyrophenone, p-fluoro-4-(1,2,3,6,-tetrahydro-1,3-dimethyl-2-oxo-6-thionopurin-8-ylthio)]
